Reference: US20110189291A1, “DENDRIMER HYDROGELS” (priority 2009, published 2011)
≈ marks a conversion by molar mass, not a printed value. Where “and” joins values, the source holds several entries; their conditions need not be identical. Equal entries are not always repeated. Structures can show the parent of a compound that is named as a salt. Where two headings read alike, the source gives them in different places.

How the values were obtained:
physchem = conditions: for solubility: thermodynamic from solid, saturated concentration (solubility); for solubility / saturated concentration (solubility): room temperature
Description: Following overnight equilibration at room temperature, the solution was vortexed again and then centrifuged at 10,000 rpm for 5 min to remove undissolved drug. The sample solution was diluted by a factor of 100 in PBS, and absorbance value (Y) at 248 nm was recorded on a GENESYS™ 6 UV-Visual spectrophotometer. Thus, drug concentration (C in μg/mL) was determined using the following regression equation: C=(Y−0.005)/0.063. […] Measurements were done in duplicate.
Following overnight equilibration at room temperature, the solution was vortexed again and then centrifuged to remove undissolved drug. The supernatant was collected, diluted by a factor of 100 in PBS, and its absorbance value (Y) at 248 nm was recorded on a GENESYS™ 6 UV-Visual spectrophotometer. Thus, drug concentration [C] (μg/mL) was determined using the following regression equation: C=(Y−0.005)/0.063 [2]. […] Measurements were done in duplicate.

[1] = In vitro drug release by dialysis in pH 7.4 PBS at 37° C.; type: physicochemical; conditions: for time for complete release (in words): from eye drop formulations
Description: The control eye drop formulation was PBS containing 0.1% brimondien and 0.5% timiolol maleate. […] The dissolution medium was maintained at 37±2° C. and constantly agitated in a shaker incubator. 4. Dissolution medium was completely replaced at all time intervals with 1.5 ml of fresh dissolution medium maintained at 37±2° C. 5. The amount of drug released in the dissolution medium at each time interval was analyzed by LC-MS.

[2] = tested on: Human corneal epithelial cells (HCET); type: cell-based; conditions: 1 h
Description: The uptake of brimonidine and timolol maleate by HCET cells after entrapment of the drugs in a hydrogel was studied. As a control, eye drop formulation of both the drugs in phosphate buffer saline was used. • 1. Human corneal epithelial cells (HCET, passage #40) were seeded in a 48 well plate (BD, Falcon®, Multiwell™ tissue culture plates) at a seeding density of 5000 cells/well. • 2. The cells were allowed to adhere to the surface of the well overnight. • 3. […] The cells were washed twice with 200 μl cold PBS pH 7.4 and twice with 200 μl cold acidic PBS pH 5.0. All the washes were collected. Finally, 200 μl of 1% w/v Triton X 100 solution was transferred to each well and allowed to stand for 30 minutes. • 6. The cells were scraped (dislodged) using a pipette tip and suspension of cells in 1% Triton X 100 solution was collected. • 7. Samples were processed as follows: 100 μl of sample collected as described above was diluted to 500 μl using acetonitrile. The samples were vortexed for 10 minutes and centrifuged at 10,000 rpm for 5 minutes, and then analyzed using LC-MS as described in Table 4. Dorzolamide was used as an internal standard

[3] = Ex vivo transcorneal transport
Description: 1. Corneas were isolated from freshly excised bovine eyes and mounted in Using chambers. 2. […] Note: Both drugs were present together in this hydrogel/solution cocktail. 3. […] 4. 200 μl of sample was collected from the receiver side with fresh assay buffer replacement at the end of 1, 2, 3, 4 and 6 h. 5. […] 6. Samples were stored at −80° C. prior to analysis. 7. Cumulative percent transport was normalized to the amount of drug present at zero time point.

[4] = Ex vivo bovine eye tissue uptake after topical dosing; type: in vitro ADME
Description: 1. […] Eyes were kept in the muffin plate and partially dipped into PBS pH 7.4. 3. 50 μl of hydrogel formulation or solution was instilled gently as an eye drop onto the corneal surface. 4. After every 15 minutes, 50 μl of fresh PBS pH 7.4 was instilled as an eye drop to prevent corneal drying. 5. At the end of 1 h, eyes were dissected and the following tissues were collected: corneal epithelium, stroma, endothelium and aqueous humor. Tissues were stored at −80° C. before sample processing and analysis. 1. Tissues weights were recorded and 0.49 ml of 2% NaOH solution was added to these tissues along with 10 μl of IS of 12.5 μg/ml. 2. Samples were homogenized, sonicated, and extracted with organic solvent. Final reconstitution was done in 0.5 ml of acetonitrile-water mixture (75:25).

| Compound | duration of sustained release ([1]; from DH formulation) | time for complete release (in words) [1] | Mean % drug content in first wash with acidic buffer [2] | Mean % drug content in second wash with acidic buffer [2] | Mean % drug content in supernatant after completion of study [2] | Mean % drug content in first wash with acidic buffer ([2]; pH 7.4) | Mean % drug content in second wash with acidic buffer ([2]; pH 7.4) | Mean % drug content in supernatant after completion of study ([2]; pH 7.4) | also measured |
| --- | --- | --- | --- | --- | --- | --- | --- | --- | --- |
| Brc1c(NC2=NCCN2)ccc2nccnc12 [brimonidine] | ~72 h | within one hour and a half | 0.00% | 0.00% | 0.00% | 93.13% | 2.92% | 0.06% | solubility (physchem; 8.1% (w/v) G3.0-PEG-dA in PBS, aqueous with cosolvent or surfactant or cyclodextrin, in the presence of G3.0-PEG-dA (8.1% w/v in PBS; DH formulation)): 696 µg/mL; solubility increase (physchem; G3.0-PEG-dA / DH formulation versus plain PBS): 77.5% and 77.6%; solubility (physchem; PBS, aqueous buffer, plain PBS): 392 µg/mL (≈ 1340 µM); saturated concentration (solubility) (physchem; in the presence of G3.0-PEG-dA (8.1% w/v in PBS; DH formulation)): 696 µg/mL; saturated concentration (solubility) (physchem; plain PBS): 392 µg/mL; duration of sustained release ([1]; from hydrogel Formulation C (0.1% brimonidine, 0.5% timolol maleate), 37° C.): 72 h; Mean % drug content in cell lysate after completion of study (uptake) [2]: 76.17%; uptake with DH formulation higher than with eye drop formulation [2]: 19 fold; corneal transport, hydrogel formulation versus solution (in words) ([3]; at the end of 6 h): slightly higher transport; cumulative percentage transport across the cornea ([3]; from the DH formulation, at 6 h): 1.06±0.18%; level in aqueous humor, hydrogel versus eye drop formulation (in words) ([4]; 1 h after topical instillation): significant difference in drug level was not observed |
| CC(C)(C)NC[C@H](O)COc1nsnc1N1CCOCC1 [timolol maleate] | ~56 h | within one hour and a half | 0.0% | 14.9% | 0.1% | 0.0% | 34.7% | 0.2% | corneal transport, hydrogel formulation versus solution (in words) [3]: higher from hydrogel; cumulative percentage transport across the cornea ([3]; bovine, 6 h, pH 7): 13.54±1.83%; level from hydrogel formulation more than from eye drop solution ([4]; bovine, 1 h, 0.5 %, pH 7.4): 40% |
